From the SangsterLogP compilation

Test: method code SF-AS, from DOI: 10.1111/j.1476-5381.1975.tb07619.x, PMID: 1182339
Settings: pH 10.0

| SMILES | logD |
| --- | --- |
| N=C(N)NC(=O)Nc1ccc([N+](=O)[O-])c(Cl)c1 | 1.79 |
| Cc1cc(NC(=O)NC(=N)N)ccc1Cl | 2.19 |
| N=C(N)NC(=O)Nc1ccc(Cl)cc1 | 1.78 |
| N#Cc1ccc(NC(=O)NC(=N)N)cc1Cl | 1.9 |

Test: method code SF-AS, from DOI: 10.1021/jf950378u
Settings: not given

| logP | SMILES |
| --- | --- |
| 0.71 | O=c1ccc2ccc(O)c(O)c2o1 |
| 0.62 | O=C(O)/C=C/c1ccccc1O |
| 1.31 | Oc1cc(O)c2c(c1)O[C@H](c1ccc(O)c(O)c1)[C@@H](O)C2 |
| 0.32 | COc1ccc([C@@H]2CC(=O)c3c(O)cc(O[C@@H]4O[C@H](CO[C@@H]5O[C@@H](C)[C@H](O)[C@@H](O)[C@H]5O)[C@@H](O)[C@H](O)[C@H]4O)cc3O2)cc1O |

Test: not given
Settings: not given

| logP | SMILES |
| --- | --- |
| 4.39 | CSc1nc(NC(C)(C)C)nc(NC(C)(C)C)n1 |
| 2.54 | CSc1nc(N)nc(NC(C)(C)C)n1 |
| 3.38 | CSc1nc(NC2CC2)nc(NC(C)(C)C)n1 |
| 2.92 | CSc1nc(NCCC=O)nc(NC(C)(C)C)n1 |

Test: not given
Settings: not given
Remark: another data set of the same source

| logP | SMILES |
| --- | --- |
| 0.73 | O=C(O)[C@H]1O[C@@H](Oc2ccccc2)[C@H](O)[C@@H](O)[C@@H]1O |
| 3.02 | CC(C)(C)OC(=O)Oc1ccccc1 |
| 2.18 | CCOC(=O)Oc1ccccc1 |
| 2.56 | O=C(O)CCCCCOC(=O)Oc1ccccc1 |

Test: method code SF-AS, from DOI: 10.1002/jps.2600741028, PMID: 4078715
Settings: not given

| logP | SMILES |
| --- | --- |
| 2.74 | Cc1cccc(C)c1C#[N+][O-] |
| 3.37 | CC(C)c1ccc(C=[N+]([O-])c2ccccc2)cc1 |
| 1.88 | [O-][N+](=Cc1ccccc1)c1ccccc1 |
| 2.41 | Cc1ccc(C=[N+]([O-])c2ccccc2)cc1 |

Test: not given
Settings: not given
Remark: another data set of the same source

| logP | SMILES |
| --- | --- |
| 3.05 | CC(C)(C)c1cccc(O)c1 |
| 3.27 | Cc1cc(O)cc(C)c1Cl |
| 2.48 | Cc1cccc(O)c1C |

| SMILES | logP |
| --- | --- |
| CCC(C)c1ccc(O)cc1 (centres undefined) | 3.32 |

Test: method code SF-AS, from DOI: 10.1016/0223-5234(93)90135-2
Settings: pH 12.2

| SMILES | logD |
| --- | --- |
| CN(C)CCc1ccccn1 | 1.12 |
| CNCCc1ccccn1 | 0.68 |
| NCCc1nc(-c2ccccc2)cs1 | 2.22 |
| NCCc1cn2ccccc2n1 | 0.59 |

Test: not given
Settings: not given
Remark: another data set of the same source

| logP | SMILES |
| --- | --- |
| 0.95 | COC(=O)CS(=O)(=O)c1ccccc1[N+](=O)[O-] |
| 1.69 | COC(=O)CS(=O)c1ccc([N+](=O)[O-])cc1Cl (centres undefined) |
| 2.03 | COC(=O)CSc1ccc([N+](=O)[O-])cc1[N+](=O)[O-] |
| 2.01 | CC(C)OC(=O)CS(=O)(=O)c1ccc([N+](=O)[O-])cc1[N+](=O)[O-] |

Test: method code SF-AS, from DOI: 10.1002/1521-3838(200111)20:4<291::aid-qsar291>3.0.co;2-q
Settings: not given

| logP | SMILES |
| --- | --- |
| 3.66 | S=c1[nH]nc(-c2ccc(Cl)cc2)o1 |
| 2.42 | Oc1ccccc1-c1n[nH]c(=S)o1 |
| 3.44 | Cc1ccc(-c2n[nH]c(=S)o2)cc1 |

Test: method code SF-AS, from DOI: 10.1111/j.2042-7158.1979.tb13606.x, PMID: 41067
Settings: pH 1.2

| logD | SMILES |
| --- | --- |
| 1.16 | O=C(O)CCc1ccc(O)cc1 |
| 1.48 | COc1ccc(CC(=O)O)cc1 |
| 1.95 | CCOc1ccc(CC(=O)O)cc1 |
| 2.33 | COc1ccc(CCCC(=O)O)cc1 |

Test: method code SF-AS, from DOI: 10.1080/00021369.1974.10861343
Settings: not given

| logP | SMILES |
| --- | --- |
| 2.68 | COC(=O)/C=C/Oc1ccccc1 |
| 3.02 | COC(=O)C=COc1ccccc1Cl |
| 3.55 | CCOC(=O)C=COc1ccccc1Cl |

Same assay, conditions: pH 3.0

| logD | SMILES |
| --- | --- |
| 3.46 | O=C(O)/C=C/Oc1ccc(Cl)cc1Cl |

Test: method code SF-HPLC, from DOI: 10.1021/jm100498u, PMID: 20704351
Settings: pH 7.4

| SMILES | logD |
| --- | --- |
| CCCCCC1(CCO)N=N1 | 2.55 |
| C[C@H](c1ccccc1)n1cncc1C(=O)OCc1ccc(C(=O)c2ccccc2)cc1 | 4.4 |
| C[C@H](c1ccccc1)n1cncc1C(=O)OCc1ccc(C2(C(F)(F)F)N=N2)cc1 | 4.3 |
| C[C@H](c1ccccc1)n1cncc1C(=O)OCCC1(C)N=N1 | 3.6 |

Test: method code SF-AS, from DOI: 10.1002/ddr.430140205
Settings: pH 7.4

| logD | SMILES |
| --- | --- |
| 1 | O=C1CCC(c2ccc(-n3ccnc3)cc2)=NN1 |
| 0.18 | O=C1CCC(c2ccncc2)=NN1 |
| 0.58 | COc1ccc(CC2CNC(=O)C2)cc1OC (centres undefined) |
| 1.55 | CSc1ccc(C(=O)c2[nH]c(=O)[nH]c2C)cc1 |

Test: method code SF, from DOI: 10.1111/j.2042-7158.1971.tb08772.x, PMID: 4401532
Settings: pH 7.2

| logD | SMILES |
| --- | --- |
| 2.46 | CC(=O)Nc1ccc(I)cc1 |
| 1.25 | CC(=O)Nc1ccc(C=O)cc1 |
| 1.4 | CC(=O)Nc1ccc(C)cc1 |
| 1.66 | CC(=O)Nc1ccc([N+](=O)[O-])cc1 |

Test: method code SF, from DOI: 10.1038/bjc.1982.190, PMID: 7150475
Settings: pH 7.4

| logD | SMILES |
| --- | --- |
| -0.53 | O=[N+]([O-])c1nccn1CC(O)CCN1CCOCC1 (centres undefined) |
| -0.19 | O=C1CN(/N=C/c2ccc([N+](=O)[O-])o2)C(=O)N1 |
| 1.08 | Cn1cnc([N+](=O)[O-])c1S(=O)(=O)Oc1ccccc1 |

| SMILES | logD |
| --- | --- |
| NC(=O)c1cc(N2CC2)c([N+](=O)[O-])cc1[N+](=O)[O-] | 0.2 |
